Calls of active or inactive are those of the source. The rule behind the calls is not given here.
How the values were obtained:
[1] = system: MDA-MB-231; experiment: Inhibition of cell migration in human MDA-MB-231 cells assessed as reduction in number of cell migrated at 10 to 40 nM incubated for 24 hrs by crystal violet staining based analysis; assay type: functional; settings: dose 10-40 nM
[2] = biological target: T1, Katanin p60 ATPase-containing subunit A1 (Homo sapiens, UniProt O75449); experiment: Binding affinity to N-terminal human Katanin p60 (8 to 229 residues) expressed in Escherichia coli Rosetta (DE3) assessed as dissociation constant by SPR analysis
[3] = system: A2780; experiment: Antiproliferative activity against human A2780 cells assessed as inhibition of cell growth measured after 48 hrs by MTT assay; assay type: functional, cell-based; settings: A2780, 48 h
[4] = Half life in mouse at 3 mg/kg, iv measured upto 24 hrs by LC-MS/MS analysis; assay type: ADME, organism-based; settings: in vivo
[5] = Cmax in mouse at 15 mg/kg, po measured upto 24 hrs by LC-MS/MS analysis; assay type: ADME, organism-based; settings: in vivo
[6] = system: MCF7; experiment: Induction of apoptosis in human MCF7 cells assessed as upregulation of PARP-1 protein level by Western blot analysis; assay type: functional, cell-based; settings: dose 10-40 nM
[7] = biological target: T1, Katanin p60 ATPase-containing subunit A1; experiment: Induction of thermal stabilization in N-terminal human Katanin p60 (8 to 229 residues) expressed in Escherichia coli Rosetta (DE3) at 10 uM by thermal shift assay
[8] = system: MDA-MB-231; experiment: Downregulation of vimentin expression in human MDA-MB-231 cells at 5 to 40 nM by Western blot analysis; assay type: functional, cell-based; settings: dose 5-40 nM
[9] = system: MCF7; experiment: Induction of apoptosis in human MCF7 cells assessed as upregulation of bad protein level by Western blot analysis; assay type: functional, cell-based; settings: dose 10-40 nM
[10] = system: MCF7; experiment: Induction of apoptosis in human MCF7 cells assessed as viable cells at 40 nM measured after 48 hrs by annexin-FITC and propidium iodide staining based flow cytometry analysis (reference value: 94.69%); assay type: functional; settings: read-out: Activity
[11] = MRT (0 to t) in mouse at 3 mg/kg, iv measured upto 24 hrs by LC-MS/MS analysis; assay type: ADME, organism-based; settings: in vivo
[12] = MRT (0 to infinity) in mouse at 3 mg/kg, iv measured upto 24 hrs by LC-MS/MS analysis; assay type: ADME, organism-based; settings: in vivo
[13] = system: MCF7; experiment: Induction of apoptosis in human MCF7 cells assessed as early apoptotic cells at 10 nM measured after 48 hrs by annexin-FITC and propidium iodide staining based flow cytometry analysis (reference value: 1.20%); assay type: functional
[14] = Toxicity in Balb/C nude mouse xenografted with A549/Taxol assessed as effect on spleen at 15 mg/kg, ip measured after 14 days by H and E staining based analysis; assay type: organism-based, A549/TR; settings: in vivo, 336 h, time 14 day
[15] = Toxicity in Balb/C nude mouse xenografted with A549/Taxol assessed as adverse effect at 15 mg/kg, ip measured after 14 days; assay type: organism-based, A549/TR; settings: in vivo, 336 h, time 14 day
[16] = system: MDA-MB-231; experiment: Antitumor activity against human MDA-MB-231 cells xenografted in BALB/c nude mouse model assessed as tumor weight reduction at 7.5 mg/kg, ip measured after 14 days relative to control; assay type: functional; parameters: scale not given: the % may be the effect or the level left; settings: time 14 day
[17] = system: MCF7; experiment: Induction of apoptosis in human MCF7 cells assessed as viable cells at 10 nM measured after 48 hrs by annexin-FITC and propidium iodide staining based flow cytometry analysis (reference value: 94.69%); assay type: functional; settings: read-out: Activity
[18] = system: MCF7; experiment: Induction of apoptosis in human MCF7 cells assessed as necrotic cells at 20 nM measured after 48 hrs by annexin-FITC and propidium iodide staining based flow cytometry analysis (reference value: 0.18%); assay type: functional
[19] = system: MGC-803; experiment: Antiproliferative activity against human MGC-803 assessed as inhibition of cell growth measured after 48 hrs by MTT assay; assay type: functional, cell-based; settings: MGC-803, 48 h
[20] = Acute toxicity in ICR mouse assessed as animal death at 200 mg/kg, ip measured after 3 to 14 days; assay type: organism-based; settings: in vivo, time 3-14 day
[21] = system: A549/TR; experiment: Antitumor activity against paclitaxel resistant human A549/Taxol cells xenografted in BALB/c nude mouse model assessed as inhibition of tumor growth at 15 mg/kg, ip measured after 14 days relative to control; assay type: functional; parameters: scale not given: the % may be the effect or the level left; settings: time 14 day
[22] = system: MCF7; experiment: Induction of apoptosis in human MCF7 cells assessed as late apoptotic cells at 40 nM measured after 48 hrs by annexin-FITC and propidium iodide staining based flow cytometry analysis (reference value: 3.93%); assay type: functional
[23] = system: MCF7; experiment: Upregulation of CDK1 expression level in human MCF7 cells at 1 to 10 nM by Western blot analysis; assay type: functional, cell-based; settings: dose 1-10 nM
[24] = Acute toxicity in ICR mouse assessed as animal death at 300 mg/kg, ip measured after 2 days; assay type: organism-based; settings: in vivo, 48 h, time 2 day
[25] = system: MDA-MB-231; experiment: Antitumor activity against human MDA-MB-231 cells xenografted in BALB/c nude mouse model assessed as inhibition of tumor growth weight administered as IP dose measured after 14 days; assay type: functional; settings: dose 7.5-15 mg/kg, time 14.0 day
[26] = Acute toxicity in ICR mouse assessed as survival rate at 100 mg/kg, ip measured after 14 days relative to control; assay type: organism-based; settings: in vivo, time 14 day
[27] = Acute toxicity in ICR mouse assessed as survival rate at 150 mg/kg, ip measured after 14 days relative to control; assay type: organism-based; settings: in vivo, time 14 day
[28] = system: A2780/Taxol; experiment: cells; settings: Homo sapiens, 48 h
[29] = system: PANC-1; experiment: Antiproliferative activity against human PANC-1 assessed as inhibition of cell growth measured after 48 hrs by MTT assay; assay type: functional, cell-based; settings: PANC-1, 48 h
[30] = Tmax in mouse at 15 mg/kg, po measured upto 24 hrs by LC-MS/MS analysis; assay type: ADME, organism-based; settings: in vivo
[31] = system: U-87 MG; experiment: Antiproliferative activity against human U-87 MG assessed as inhibition of cell growth measured after 48 hrs by MTT assay; assay type: functional, cell-based, U-87MG ATCC

T1 sequence (O75449 whole entry, the tested form may be a part): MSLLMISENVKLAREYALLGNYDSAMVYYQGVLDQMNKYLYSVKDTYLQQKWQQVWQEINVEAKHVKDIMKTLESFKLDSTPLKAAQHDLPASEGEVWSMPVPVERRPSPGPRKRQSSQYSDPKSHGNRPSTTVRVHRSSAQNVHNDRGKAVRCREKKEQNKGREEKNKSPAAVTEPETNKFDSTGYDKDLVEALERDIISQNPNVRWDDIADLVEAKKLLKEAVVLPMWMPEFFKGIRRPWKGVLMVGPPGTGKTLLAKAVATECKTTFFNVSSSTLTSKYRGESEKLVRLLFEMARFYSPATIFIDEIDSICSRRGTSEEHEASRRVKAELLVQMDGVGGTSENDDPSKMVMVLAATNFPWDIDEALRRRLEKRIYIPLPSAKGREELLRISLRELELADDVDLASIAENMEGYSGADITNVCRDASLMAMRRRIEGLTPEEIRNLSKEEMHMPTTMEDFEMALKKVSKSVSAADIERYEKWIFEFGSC

Q: For COc1cc(-n2cnc3ccc(-c4ccc(C)c(N)c4)nc32)cc(OC)c1OC, which inhibition [1] is on record?
A: Active

Q: And the Kd [2]?
A: 1810 nM

Q: What about the IC50 [3] of the same compound?
A: 3 nM

Q: What about the half-life [4] of the same compound?
A: 63.6 min

Q: And the Cmax [5]?
A: 1200 ng/mL

Q: And the Activity [6]?
A: Dose-Dependent Effect

Q: What about the Activity [7] of the same compound?
A: Active

Q: What about the Activity [8] of the same compound?
A: Active

Q: What about the Activity [9] of the same compound?
A: Dose-Dependent Effect

Q: And the viability at 0.04 µM [10]?
A: 40.1%

Q: And the MRT last at 24 h [11]?
A: 29.4 min

Q: And the MRT inf [12]?
A: 31.2 min

Q: And the Activity [13]?
A: 29.59%

Q: What about the Activity [14] of the same compound?
A: Non-Toxic

Q: And the Activity [15]?
A: Non-Toxic

Q: What about the Activity [16] of the same compound?
A: 63%

Q: And the viability at 0.01 µM [17]?
A: 53.3%

Q: And the Activity [18]?
A: 0.62%

Q: What about the IC50 [19] of the same compound?
A: 0.5 nM

Q: What about the Activity [20] of the same compound?
A: Non-Toxic

Q: And the Activity [21]?
A: 74%

Q: What about the Activity [22] of the same compound?
A: 27.01%

Q: And the Activity [23]?
A: Active

Q: What about the Activity [24] of the same compound?
A: Non-Toxic

Q: What about the Activity [25] of the same compound?
A: Dose-Dependent Effect

Q: And the survival at 336 h [26]?
A: 80%

Q: And the survival at 336 h [27]?
A: 50%

Q: And the IC50 [28]?
A: 4.8 nM

Q: And the IC50 [29]?
A: 4 nM

Q: What about the Tmax [30] of the same compound?
A: 8.4 min

Q: And the IC50 [31]?
A: 15 nM

— ChEMBL document CHEMBL5523751, “Discovery of Novel Diaryl-Substituted Fused Heterocycles Targeting Katanin and Tubulin with Potent Antitumor and Antimultidrug Resistance Efficacy” (J Med Chem, 2024)
